Measurements taken from US7846708B2, “Method for increasing the survival of bacterial strains of the Rhizobium genus” (Consiglo Nazionale delle Richerch, priority 2005, dated 2010).

How the values were obtained:
[1] = test system: S. meliloti 1021; test: Survival at low temperature (4° C.), colony counting; format: cell-based, Sinorhizobium meliloti; details: 0.5 mM IAA; after 45 and 60 days at 4° C.; FIG. 9
Method: FIG. 9: Survival at 4° C. of wild type S. meliloti 1021 treated with IAA and of the strain RD64. The bacterial cells of the three analysed strains (wild type S.m. 1021, S.m. treated with 0.5 mM IAA and RD64) were grown until exponential phase, then plated and the plates were incubated at 4° C. for 15, 30, 45 and 60 days. Every 15 days, a plate group of each strain was transferred to 30° C. for one day and the colonies were counted.
Furthermore, the author has assayed for the ability of the same strains to resist to prolonged incubations at low temperature (4° C.). The cells of the same three strains: Sm 1021, Sm 1021 treated with 0.5 mM IAA and the strain RD64, were grown until an optical density of 0.6, plated and incubated at 4° C. for periods of time variable up to two months.

[2] = test system: Sinorhizobium meliloti 1021; test: Growth and survival test in liquid minimal medium (colonies on agar plates after prolonged stationary phase); format: cell-based; details: for ability to generate colonies with respect to the reference strain (1021): FIG. 6; for increase of the ability to generate colonies: FIG. 7, 7 and 15 days after IAA addition
Method: For the growth and survival tests the minimal medium was utilized. A culture of the various strains was kept in growth stationary phase for two days, then they were collected, properly diluted and plated at the various recommended periods of time so as to obtain about 100-1000 colonies per plate. For the strains to be treated with IAA, the addition (0.05 or 0.5 mM IAA) occurred after two days of growth in stationary phase, then the bacteria were diluted and plated.
The author has evaluated the ability of S. meliloti 1021 to generate colonies on agar plates after prolonged incubation in growth medium. The formed colonies were counted on at least five plates and the experiment was repeated at least five times.
(§1) The number of colonies of not treated Sinorhizobium meliloti 1021 was compared to the one of the same strain treated with IAA (0.05 mM and 0.5 mM) two days after reaching the stationary phase of bacterial growth. The percentage value of the surviving cells was measured several days after treatment. Applied stresses were: pH 3 (acid stress): cells were incubated for 30 minutes and then plated; NaCl 0.5 M (high osmotic pressure): 3 hours incubation; UV light resistance: time was not determined but the UV dose was selected to reach an irradiation dosage of 100 J/m^2; treatment at high temperature 55° C.: cells were incubated for 5 minutes; treatment at low temperature (4° C.) cells were incubated for up to 60 days at 4° C.
In fact, the following groups were compared: • Sm 1021; • Sm 1021 additioned with 0.5 mM IAA; • Sm 1021 additioned with 0.05 mM IAA; • Sm 1021 containing the wild promoter-iaaMtms2 construct (RD 64) • Sm 1021 containing the promoter-iaaMtms2 construct mutated in the −16/−14 GAC region (RD65); • Sm 1021 containing the promoter-iaaMtms2 construct mutated in the −48, 49, 51, 52 G region (RD66); • Sm 1021 containing the promoter-iaaMtms2 construct mutated in the −40-37 CCCC (RD67); b) Effect of Various IAA Concentrations on the Survival of Sinorhizobium Meliloti 1021
In order to evaluate the effect of different IAA concentrations on the survival of Sinorhizobium meliloti 1021 the number of colonies generated on agar plates were evaluated (see FIG. 7). The utilized concentrations were 0.05; 0.2; 0.5; and 2 mM IAA. The inocula of the wild strain not treated with IAA were used as controls as well as the RD64 strain. The number of colonies of S.m. 1021 was arbitrarily set equal to 100%. The number of colonies generated after 7 and 15 days of growth after the IAA addition in the growth liquid medium was evaluated.

[3] = test system: Sinorhizobium meliloti 1021; test: Effect of dehydration on survival (vacuum-dried cells plated at increasing times); format: cell-based
Method: A culture of the wild strain S. meliloti 1021, of the strain 64 and 66 were kept in growth stationary phase for three days, then they were dehydrated […] and plated at the various times shown in figure. Furthermore, a culture of the wild strain 1021 was subjected to analogous treatment, thereto 0.05 mM IAA were added after two days of growing in stationary phase, the stationary growth continued for a third day and then the bacteria were dehydrated and processed like the preceding samples.
For the dehydration test (FIG. 8), the cells were grown until reaching the stationary phase and kept for 3 days in stationary phase. The cells were centrifuged at 4000 rpm for 15′, washed in water and counted on plates as live colonies. The cells were then diluted so as to be aliquoted in Eppendorf tubes at the concentration of 1:10000 for each sample and then vacuum-dried in Savant centrifuge. After 4, 8, 14 and 32 days, the aliquots were plated on TYR selective medium, the formed colonies were counted on at least three plates and the experiment was repeated at least three times.

[4] = test system: Sinorhizobium meliloti strain 1021 cells; test: Cell resistance of Sinorhizobium meliloti cells to various stress conditions (colony counting after stress); format: cell-based
Method: as §1
The author has assayed for the bacteria resistance to stresses such as low and high temperatures. For the resistance to high temperatures the cells were grown in exponential phase (optical density 0.6) and then incubated for 2 minutes at room temperature or at 55° C. and then plated.
Sinorhizobium meliloti strain 1021 cells and its derivative RD64 overproducing IAA, were exposed to different stress conditions and the number of surviving cells counted by plating opportune dilutions on agar plates; after plates incubation at 30° C., the number of emerging colonies were counted (Table 1).
As a control untreated cells were plated and the number of colonies was considered as 100% for that condition. Stress applied were: • 1) low pH, pH 3, treatment: 30 minutes; • 2) high osmotic pressure (0.5 M NaCl): 3 hours; • 3) UV irradiation were automatically set at 100 J/m^2 and cells were irradiate for less that 1 minute; • 4) High (55° C.) temperature treatment: 5 minutes. Results A) Expression of the Beta-glucuronidase Modulated by the Mutation in the Promoter-iaaMtms2 Sequence

**Q.** What does the source list for `O=C(O)Cc1c[nH]c2ccccc12` [IAA, indole-3-acetic acid]?
**A.** number of cells able to generate colonies after incubation at 4° C. with respect to the not treated strain [1]: almost the double; ability to generate colonies with respect to the reference strain (1021) ([2]; 0.05 mM IAA added after two days in stationary phase): greater ability to generate colonies; increase of the ability to generate colonies ([2]; 0.2 mM IAA): effective to increase the ability to generate colonies; ability to generate colonies with respect to the reference strain (1021) ([2]; 0.5 mM IAA added after two days in stationary phase): greater ability to generate colonies; increase of the ability to generate colonies ([2]; 0.5 mM IAA): effective to increase the ability to generate colonies; total increase in the number of live cells in liquid culture with respect to the wild strain ([2]; purified IAA at 0.5 mM, after two growth weeks): at least 100%; increase of the survival of the bacterial cells under dehydration ([3]; IAA at 0.05 mM, FIG. 8): up to 50%; additional increase in the cellular survival of pelleted, dehydrated and plated cells ([3]; IAA purified at 0.05 mM, after two weeks): up to 40%; Survival (%), Osmotic shock (+0.5 M NaCl) ([4]; 0.5 M NaCl, 3 hours, unstressed cells = 100%, IAA added at 0.5 mM to 1021, strain 64 without addition): 78 ± 1%; Survival (%), Heat-shock (55° C.) ([4]; 55° C., 5 minutes, unstressed cells = 100%, IAA added at 0.5 mM to 1021, strain 64 without addition): 0.196 ± 0.021%; more resistant than the untreated 1021, high temperature ([4]; 55° C., relative to untreated 1021): 10%; Survival (%), UV-irradiation (100 J/m^2) ([4]; 100 J/m^2, unstressed cells = 100%, IAA added at 0.5 mM to 1021, strain 64 without addition): 86 ± 1%; more resistant than the untreated 1021, intense UV irradiation ([4]; UV irradiation, relative to untreated 1021): 10%; colonies generated more than the control after heat shock ([4]; heat shock, IAA at 0.05 mM as printed, relative to S.m. 1021): up to 20%; more resistant than the untreated 1021, high osmotic solution ([4]; high osmotic solution, relative to untreated 1021): 50%; more resistant than the untreated 1021, very low pH ([4]; pH3, 30 minutes, relative to untreated 1021): 100%; Survival (%), Acid shock (pH 3.0) ([4]; pH 3, 30 minutes, unstressed cells = 100%, IAA added at 0.5 mM to 1021, strain 64 without addition): 0.0023 ± 0.0006%
